Experimental data: patent publication US11267826B2, “Penicillin-binding protein inhibitors” (priority 2017, dated 2022)

Experiments:
[1] = tested on: E. coli DH5a with pLBII plasmid with no β-lactamase gene; test: Broth microdilution MIC, engineered E. coli control strain (pLBII plasmid, no β-lactamase gene); format: cell-based; settings: Escherichia coli, read-out: MIC, β-lactamase None
Protocol: (§1) To determine the ability of test compounds to potentiate the inhibition of the growth of bacterial strains, classic cell based broth microdilution MIC assays were employed. MIC assays are performed according to CLSI methods except where otherwise noted (CLSI, 2011 and CLSI, 2009). The reference strain S. aureus ATCC 29213 and the hyper-permeable E. coli 901C were used to determine the ability of the PBP compounds to inhibit bacterial growth. Briefly, cryo-preserved bacterial cultures of clinical strains are streaked for isolation on appropriate agar medium, in this case Mueller Hinton II agar. Following incubation to allow formation of colonies these plates are sealed with parafilm and stored refrigerated for up to two weeks. For preparation of assay inocula and to ensure low variability, at least 5 colonies are picked from the agar plates with an inoculating loop and aseptically transferred to a culture tube containing 3 mL of Mueller-Hinton Broth (supplemented with divalent cations to required levels based on Manufacturers' certification). The broth culture is grown for 3-5 hours at 37° C. with shaking at 200 rpm. Meanwhile, 2-fold serial dilutions of test compounds are conducted in a 96 well plate with a final volume of 75 μL per well at 2-fold the final desired concentration. After the dilution plates are set up the growing cultures are then diluted in a cuvette containing MH II broth and the optical density is measured at 600 nm. Inocula are diluted such that 75 μL of this culture in Mueller-Hinton Broth results in a starting bacterial concentration of 5×10^5 CFU/mL when added to the dilution plates. The plates are incubated 16-20 hours at 37° C. The MIC is read visually as the lowest concentration well with no bacterial growth.
(§2) To determine if test compounds were affected by various known β-lactamases, the inhibition of the growth of engineered strains of Escherichia coli harboring select single β-lactamases were tested. […]

[2] = tested on: E. coli DH5a harboring SHV-5; test: Broth microdilution MIC, engineered E. coli expressing SHV-5; format: cell-based; settings: Escherichia coli, read-out: MIC, β-lactamase SHV
Protocol: as §1, §2

[3] = tested on: E. coli DH5a harboring CTX-M15; test: Broth microdilution MIC, engineered E. coli expressing CTX-M15; format: cell-based; settings: Escherichia coli, read-out: MIC, β-lactamase CTXM
Protocol: as §1, §2

[4] = tested on: E. coli DH5a harboring TEM-24; test: Broth microdilution MIC, engineered E. coli expressing TEM-24; format: cell-based; settings: Escherichia coli, read-out: MIC, β-lactamase TEM
Protocol: as §1, §2

[5] = tested on: E. coli DH5a harboring VIM-2; test: Broth microdilution MIC, engineered E. coli expressing VIM-2; format: cell-based; settings: Escherichia coli, read-out: MIC, β-lactamase VIM
Protocol: as §1, §2

[6] = tested on: E. coli DH5a harboring NDM-1; test: Broth microdilution MIC, engineered E. coli expressing NDM-1; format: cell-based; settings: Escherichia coli, read-out: MIC, β-lactamase NDM
Protocol: as §1, §2

[7] = tested on: E. coli DH5a harboring OXA-48; test: Broth microdilution MIC, engineered E. coli expressing OXA-48; format: cell-based; settings: Escherichia coli, read-out: MIC, β-lactamase OXA
Protocol: as §1, §2

[8] = tested on: E. coli DH5a harboring IMP-18; test: Broth microdilution MIC, engineered E. coli expressing IMP-18; format: cell-based; settings: Escherichia coli, read-out: MIC, β-lactamase IMP
Protocol: as §1, §2

[9] = tested on: engineered strains of Escherichia coli harboring select single β-lactamases; test: MIC across the panel of engineered E. coli strains harboring select single β-lactamases; format: cell-based; settings: strains expressing β-lactamases compared with control strain, result in words
Protocol: To determine if test compounds were affected by various known β-lactamases, the inhibition of the growth of engineered strains of Escherichia coli harboring select single β-lactamases were tested. These strains were constructed by cloning the gene encoding the particular β-lactamase into the NdeI and BamHI restriction endonuclease sites of plasmid pLBII, placing the gene(s) under the control of the Lac promoter.

[10] = tested on: E. coli K12 PBP1a/b; test: Bocillin FL competition binding assay, PBP1a/1b combined; set-up: species or system Escherichia coli K12; settings: 15 min pre-incubation, PBP 1a/1b combined
Summary of the method: (§3)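 E. coli K12 membrane extracts (100 µg protein) pre-incubated 15 min with compound (0.005–2,480 µg/mL) in pH 7 phosphate/350 mM NaCl, then labelled with Bocillin FL 30 min at 35°C; SDS-PAGE fluorescence (ex 450/em 520 nm), μg/mL reported. PBP1a/1b unresolved, reported combined.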

[11] = target: T1, E. coli PBP2 (Escherichia coli, UniProt P0AD65); test: Bocillin FL competition binding assay, PBP2; set-up: species or system Escherichia coli K12; settings: 15 min pre-incubation
T1 construct: 100 μg's of total membrane protein extracts containing PBPs; endogenous in cells; host or cells: Escherichia coli K12, membrane protein fraction
Summary of the method: as §3

[12] = target: T2, E. coli PBP3 (Escherichia coli, UniProt P0AD68); test: Bocillin FL competition binding assay, PBP3; set-up: species or system Escherichia coli K12; settings: 15 min pre-incubation
T2 construct: 100 μg's of total membrane protein extracts containing PBPs; endogenous in cells; host or cells: Escherichia coli K12, membrane protein fraction
Summary of the method: as §3

[13] = tested on: S. aureus ATCC 29213; test: Broth microdilution MIC assay, S. aureus; format: cell-based; settings: Staphylococcus aureus, ATCC29213; broth microdilution, 16-20 hours at 37° C.; read-out: S. aureus 29213 MIC
Summary of the method: (§4)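 Colonies from Mueller Hinton II agar grown 3-5 h at 37° C in cation-adjusted MH broth; OD600-adjusted inoculum, 5×10^5 CFU/mL final, added to 2-fold compound series. 16-20 h, 37° C. Visual MIC, no-growth endpoint.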

[14] = tested on: hyper-permeable E. coli 901C; test: Broth microdilution MIC assay, hyper-permeable E. coli; format: cell-based; settings: Escherichia coli, read-out: E. coli 901C MIC
Summary of the method: as §4

[15] = target: T3, E. coli K12 PBP1b (Escherichia coli, UniProt P02919); test: Competition binding assay using Bodipy-FL boronic acid probe (Example 125); settings: Bodipy-FL boronic acid probe (Example 125) 30 μM, 10 minutes pre-incubation, 10 minutes reaction
T3 construct: endogenous in cells; host or cells: Escherichia coli K12, membrane protein fraction
Protocol: Penicillin binding proteins were isolated from Escherichia coli K12 by growth of Escherichia coli K12 from a single colony in 4 L of Luria-Bertani (LB) broth at 35° C. and 250 rpm to an OD600 nm of 0.5. The cells were harvested by centrifugation at 7,000×g for 10 min. at 4° C. Cells were resuspended and washed in 50 mM potassium phosphate pH 7.5. The cells were re-suspended in sonication buffer [50 mM Tris-HCl pH 7.5, 1 mM MgCl2, 1 mM beta-mercaptoethanol, and 5 μg/mL DNAse I] and sonicated by 4 passes of 30 seconds at 45 W on ice. The sample was clarified by centrifugation at 3,000×g to remove cell debris and unbroken cells and supernatant containing the membrane proteins was retained. The membrane proteins including the PBPs were further purified from soluble constituents by an ultracentrifugation step at 100,000×g for 30 min. at 4° C. The membrane proteins are washed twice with 10 mM sodium phosphate pH 7, resuspended in a volume of 5 mL, quantitated by BCA assay, adjusted to […] and frozen at −80° C. until use.
The adapted Bocillin FL competition binding method described herein incorporates a 15 min. pre-incubation of test compound with isolated PBPs to attempt to balance the difference in mechanism of inhibition between beta-lactams (largely irreversible covalent bond to active site Serine) and the boron-containing PBP inhibitor test compounds (reversible covalent bond to active site Serine). Briefly, 50 μL reactions consisted of 100 μg's of total membrane protein extracts containing PBPs incubated with a dilution series of test compound ranging from 0.005 μg/mL to 2,480 μg/mL in 10 mM sodium phosphate pH7 containing 350 mM NaCl. Thirty minute reactions at 35° C. were initiated by addition of […] Bocillin FL, quenched by addition of SDS-PAGE loading buffer containing sodium dodecyl sulfate (SDS) and heated for 15 minutes at 95° C. to denature proteins in preparation for SDS-polyacrylamide gel electrophoresis. The Bocillin FL labeled PBPs are then separated by SDS-PAGE in Novex NuPage 10% Bis-Tris pre-cast gels (Invitrogen). The SDS-PAGE gel, post-electrophoresis, is then washed in water to remove excess SDS for 10 minutes at room temperature and placed on the scanning bed of a GE Healthcare/Amersham Biosciences Storm 860 fluorescence scanner. The excitation wavelength is in the blue spectrum at 450 nm and the emission at 520 nm is captured by the instrument. Effective PBP inhibitors are detected by a reduction in Bocillin FL labeling of the particular PBP over the dose range of test compound in a dose-responsive manner. High molecular weight PBP 1a/1b are not resolved by these gels, thus we report HMW PBP binding results in μg/mL for PBPs 1a/1b combined as well as for PBP2 and PBP3.
To determine the ability of boronic acid-based test PBP inhibitors to bind Penicillin Binding Proteins (PBPs), a competition binding assay using a Bodipy-FL-labeled boronic acid PBP inhibitor (Example 125) was adapted from the classical method used to assess PBP potency of beta-lactams using Bocillin-FL (fluorescently-labeled penicillin V). The method is identical to that described in Example I for the Bocillin-FL competition binding assay with the following exceptions, the Bodipy-FL boronic acid probe (Example 125) is used at a final concentration of 30 μM, pre-incubation time of test compound with PBP enzymes is 10 minutes and reaction time is set for 10 minutes and reactions are prepared for SDS-PAGE analysis by simply adding SDS-containing loading buffer. Representative results are shown in Table 5, where A represents a potency of >1000 μg/mL, B represents a potency between 64 and 1000 μg/mL inclusive, and C represents a potency of <64 μg/mL. NT=Not Tested.

T3 sequence (P02919 whole entry): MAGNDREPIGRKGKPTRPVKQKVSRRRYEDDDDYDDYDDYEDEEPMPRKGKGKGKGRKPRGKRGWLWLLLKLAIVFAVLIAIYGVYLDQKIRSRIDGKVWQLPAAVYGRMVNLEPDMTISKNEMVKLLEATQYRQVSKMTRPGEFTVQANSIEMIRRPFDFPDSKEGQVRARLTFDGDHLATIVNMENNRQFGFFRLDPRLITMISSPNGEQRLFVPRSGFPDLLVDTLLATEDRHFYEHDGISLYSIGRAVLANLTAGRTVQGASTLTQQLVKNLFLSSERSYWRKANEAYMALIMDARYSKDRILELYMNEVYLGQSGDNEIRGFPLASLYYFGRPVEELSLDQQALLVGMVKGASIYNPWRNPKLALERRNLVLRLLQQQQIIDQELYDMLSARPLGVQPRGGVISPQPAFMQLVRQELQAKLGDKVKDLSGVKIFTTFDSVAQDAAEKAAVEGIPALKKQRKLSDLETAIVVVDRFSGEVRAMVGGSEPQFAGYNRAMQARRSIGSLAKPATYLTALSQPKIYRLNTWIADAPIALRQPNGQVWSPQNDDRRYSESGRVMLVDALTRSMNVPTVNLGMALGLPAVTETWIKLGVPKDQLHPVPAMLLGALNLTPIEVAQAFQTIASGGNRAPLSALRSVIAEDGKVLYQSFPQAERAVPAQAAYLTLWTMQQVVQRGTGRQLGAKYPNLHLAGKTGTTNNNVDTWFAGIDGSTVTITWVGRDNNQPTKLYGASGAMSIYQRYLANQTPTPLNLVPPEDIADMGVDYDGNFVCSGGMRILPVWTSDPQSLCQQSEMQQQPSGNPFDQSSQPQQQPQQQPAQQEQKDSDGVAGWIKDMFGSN
T2 sequence (P0AD68 1-577): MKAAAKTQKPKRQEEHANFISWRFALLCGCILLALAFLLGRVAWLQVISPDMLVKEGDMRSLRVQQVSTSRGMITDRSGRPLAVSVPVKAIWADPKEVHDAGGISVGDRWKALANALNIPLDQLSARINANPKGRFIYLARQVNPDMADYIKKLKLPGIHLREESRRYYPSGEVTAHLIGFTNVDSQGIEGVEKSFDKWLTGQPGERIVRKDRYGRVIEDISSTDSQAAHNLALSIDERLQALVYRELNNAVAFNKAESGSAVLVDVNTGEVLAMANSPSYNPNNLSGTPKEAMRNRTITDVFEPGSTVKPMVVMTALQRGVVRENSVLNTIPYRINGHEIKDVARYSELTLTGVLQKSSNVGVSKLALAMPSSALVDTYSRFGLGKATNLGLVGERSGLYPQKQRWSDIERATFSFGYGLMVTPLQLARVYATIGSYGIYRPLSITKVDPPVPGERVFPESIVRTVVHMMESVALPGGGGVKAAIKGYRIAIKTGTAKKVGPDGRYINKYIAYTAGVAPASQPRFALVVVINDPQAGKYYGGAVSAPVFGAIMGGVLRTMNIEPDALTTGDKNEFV
T1 sequence (P0AD65 whole entry): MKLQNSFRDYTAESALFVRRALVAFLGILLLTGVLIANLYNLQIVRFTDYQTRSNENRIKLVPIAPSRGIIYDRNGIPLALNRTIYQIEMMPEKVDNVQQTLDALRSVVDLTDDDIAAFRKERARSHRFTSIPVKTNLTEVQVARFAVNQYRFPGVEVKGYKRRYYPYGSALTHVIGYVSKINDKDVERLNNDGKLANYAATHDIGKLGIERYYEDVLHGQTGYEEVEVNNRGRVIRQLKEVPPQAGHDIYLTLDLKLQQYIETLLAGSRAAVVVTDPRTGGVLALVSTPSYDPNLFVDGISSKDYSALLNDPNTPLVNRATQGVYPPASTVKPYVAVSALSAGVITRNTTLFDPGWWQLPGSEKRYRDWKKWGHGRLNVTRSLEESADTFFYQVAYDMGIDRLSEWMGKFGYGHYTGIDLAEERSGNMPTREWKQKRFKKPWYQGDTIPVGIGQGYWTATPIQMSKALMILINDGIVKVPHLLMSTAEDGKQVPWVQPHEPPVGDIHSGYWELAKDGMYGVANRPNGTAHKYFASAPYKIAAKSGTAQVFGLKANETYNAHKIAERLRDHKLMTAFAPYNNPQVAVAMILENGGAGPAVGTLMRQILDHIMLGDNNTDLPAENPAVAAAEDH

SMILES	MIC [1] [µg/mL]	MIC [2] [µg/mL]	MIC [3] [µg/mL]	MIC [4] [µg/mL]	MIC [5] [µg/mL]	MIC [6] [µg/mL]	MIC [7] [µg/mL]	MIC [8] [µg/mL]	Effect of expressed β-lactamase on MIC [9]	E. coli K12 PBP1a/b Potency [10]	E. coli PBP2 Potency [11]	E. coli PBP3 Potency [12]	MIC [13] [µg/mL]	MIC [14] [µg/mL]	E. coli K12 PBP1b Potency [15]
C[C@H]1[C@H](NC(=O)/C(=N\OC(C)(C)C(=O)O)c2csc(N)n2)C(=O)N1S(=O)(=O)O [Aztreonam, reference compound]	0.06	8	32	1	0.06	0.06	0.125	0.06	weaker MICs in those strains						
CC(C)NC(=N)c1ccc(OCCO/N=C(\C(=O)N[C@H]2Cc3cccc(C(=O)O)c3OB2O)c2csc(N)n2)cc1 [Example 49, (R,Z)-3-(2-(2-aminothiazol-4-yl)-2-((2-(4-(N-isopropylcarbamimidoyl)phenoxy)ethoxy)imino)acetamido)-2-hydroxy-3,4-dihydro-2H-benzo[e][1,2]oxaborinine-8-carboxylic Acid]										B (B represents a potency between 64 and 1000 μg/mL inclusive)	B (B represents a potency between 64 and 1000 μg/mL inclusive)	B (B represents a potency between 64 and 1000 μg/mL inclusive)	64 to 128	< 64	A (A represents a potency of >1000 μg/mL)
Nc1nc(/C(=N/OCC2CCNCC2)C(=O)N[C@H]2Cc3cccc(C(=O)O)c3OB2O)cs1 [Example 52, (R,Z)-3-(2-(2-aminothiazol-4-yl)-2-((piperidin-4-ylmethoxy)imino)acetamido)-2-hydroxy-3,4-dihydro-2H-benzo[e][1,2]oxaborinine-8-carboxylic Acid]										A (A represents a potency of >1000 μg/mL)	A (A represents a potency of >1000 μg/mL)	A (A represents a potency of >1000 μg/mL)	> 128	< 64	B (B represents a potency between 64 and 1000 μg/mL inclusive)
Nc1nc(/C(=N/OCC(=O)NC2CCNCC2)C(=O)N[C@H]2Cc3cccc(C(=O)O)c3OB2O)cs1 [Example 59, (R,Z)-3-(2-(2-aminothiazol-4-yl)-2-((2-oxo-2-(piperidin-4-ylamino)ethoxy)imino)acetamido)-2-hydroxy-3,4-dihydro-2H-benzo[e][1,2]oxaborinine-8-carboxylic Acid]										B (B represents a potency between 64 and 1000 μg/mL inclusive)	C (C represents a potency of <64 μg/mL)	C (C represents a potency of <64 μg/mL)	> 128	< 64	B (B represents a potency between 64 and 1000 μg/mL inclusive)
NC(=O)CO/N=C(\C(=O)N[C@H]1Cc2cccc(C(=O)O)c2OB1O)c1csc(N)n1 [Example 61, (R,Z)-3-(2-((2-amino-2-oxoethoxy)imino)-2-(2-aminothiazol-4-yl)acetamido)-2-hydroxy-3,4-dihydro-2H-benzo[e][1,2]oxaborinine-8-carboxylic Acid]										C (C represents a potency of <64 μg/mL)	B (B represents a potency between 64 and 1000 μg/mL inclusive)	C (C represents a potency of <64 μg/mL)	64 to 128	< 64	C (C represents a potency of <64 μg/mL)
CC(C)(O/N=C(\C(=O)N[C@H]1Cc2cccc(C(=O)O)c2OB1O)c1csc(N)n1)C(=O)O [Example 68, (R,Z)-3-(2-(2-aminothiazol-4-yl)-2-(((2-carboxypropan-2-yl)oxy)imino)acetamido)-2-hydroxy-3,4-dihydro-2H-benzo[e][1,2]oxaborinine-8-carboxylic Acid]										C (C represents a potency of <64 μg/mL)	C (C represents a potency of <64 μg/mL)	C (C represents a potency of <64 μg/mL)	> 128	< 64	C (C represents a potency of <64 μg/mL)
